We go through six compounds from ChEMBL document CHEMBL3351843, “Noncovalent fluorescent probes of human immuno- and constitutive proteasomes” (J Med Chem, 2014).

Activity calls are given as the source filed them. The rule behind the calls is not given here.

Data set [1] in a line: Inhibition of chymotrypsin-like activity of human constitutive 20S proteasome incubated for 15 mins before fluorogenic substrate addition.
Data set [2] in a line: Inhibition of PA activity of human constitutive 20S proteasome incubated for 15 mins before fluorogenic substrate addition.
A short description of data set [3]: Inhibition of chymotrypsin-like activity of human inducible 20S immunoproteasome incubated for 15 mins before fluorogenic substrate addition.
Data set [4] is described as follows: Inhibition of PA activity of human inducible 20S immunoproteasome incubated for 15 mins before fluorogenic substrate addition.
Data set [5] in a line: Inhibition of trypsin-like activity of human inducible 20S immunoproteasome incubated for 15 mins before fluorogenic substrate addition.
The nature of data set [6]: Inhibition of trypsin-like activity of human constitutive 20S proteasome incubated for 15 mins before fluorogenic substrate addition.
For data set [7], the system named is HEK293. Nature of the data set: Drug uptake in HEK293 cells at 5 uM incubated for 1 hr by flow cytometry. It counts as ADME, cell-based. The settings on record: human, hek293, 1 h.
Data set [8] in a line: Cytotoxicity against HEK293 cells assessed as cell survival at 5 uM incubated for 1 hr by XTT assay. It counts as cell-based. The settings on record: human, read-out: Survival.
Data set [9] has as its system Proteasome. Nature of the data set: Inhibition of chymotrypsin-like activity of proteasome in HEK293 cells incubated for 1 hr by proteasome Glo cell-based chemiluminescent assay. The following applies: Homo sapiens, HEK293, 1 h.
For data set [10], the system named is Proteasome. Description: Reversible inhibition of PA activity of proteasome in HEK293 cells incubated for 1 hr by proteasome Glo cell-based chemiluminescent assay. The settings on record: Homo sapiens.
Data set [11] concerns Proteasome. Description: Inhibition of trypsin-like activity of proteasome in HEK293 cells incubated for 1 hr by proteasome Glo cell-based chemiluminescent assay. The following applies: Homo sapiens, HEK293, 1 h.
Data set [12] deals with Proteasome. Nature of the data set: Reversible inhibition of trypsin-like activity of proteasome in HEK293 cells incubated for 1 hr by proteasome Glo cell-based chemiluminescent assay. The settings on record: Homo sapiens.
A short description of data set [13]: Drug uptake in nucleus of HEK293 cells at 5 uM incubated for 1 hr by DAPI staining based confocal microscopy. It counts as ADME, cell-based. The following applies: human, hek293, 1 h.
For data set [14], the system named is HEK293. Nature of the data set: Reversible inhibition of chymotrypsin-like activity of proteasome in HEK293 cells incubated for 1 hr by proteasome Glo cell-based chemiluminescent assay. The settings on record: Homo sapiens.
Data set [15] deals with Proteasome. Nature of the data set: Inhibition of PA activity of proteasome in HEK293 cells incubated for 1 hr by proteasome Glo cell-based chemiluminescent assay. The following applies: Homo sapiens, HEK293, 1 h.

As for `C[C@H](NC(=O)[C@H](Cc1ccc(OCc2ccccc2)cc1)NC(=O)c1ccc(-c2c3ccc(=O)cc-3oc3cc(O)ccc23)c(C(=O)O)c1)C(=O)N[C@@H](C[C@]1(O)C(=O)Nc2ccccc21)C(=O)NCc1ccccc1`, the IC50 in [1] is 2590 nM; in [2], 9520 nM; in data set [3], 1490 nM; in data set [4] it was 7060 nM; in data set [5], 2430 nM; in [6], 1930 nM.

For the compound `COC(=O)CCCCCNC(=O)c1ccc(-c2c3ccc(=[N+](C)C)cc-3oc3cc(N(C)C)ccc23)c(C(=O)[O-])c1`, the Drug uptake result in the data set with HEK293 [7] is on record as “Active”. Besides, the viability at 1 h, 5 µM in data set [8] was determined as 67.6%.

With `C[C@H](NC(=O)[C@H](Cc1ccc(OCc2ccccc2)cc1)NC(=O)CCCCCNC(=O)c1ccc(-c2c3ccc(=[N+](C)C)cc-3oc3cc(N(C)C)ccc23)c(C(=O)[O-])c1)C(=O)N[C@@H](C[C@]1(O)C(=O)Nc2ccccc21)C(=O)NCc1ccccc1`, the half-inhibitory concentration (IC50) with Proteasome [9] is 65 nM; in data set [1] it was 480 nM; in the data set with Proteasome [11] it was 521 nM; in [2], 990 nM; in data set [3], 560 nM; in data set [4] it was 640 nM. For the same compound, the concentration for half-maximal inhibition (IC50) with Proteasome [15] turned out to be 402 nM; in data set [5] it was 1750 nM; in data set [6], 1240 nM. Moreover, the inhibition result in the data set on Proteasome [10], in the data set with Proteasome [12] and in the data set on HEK293 [14] was “Active” each time. In data set [13], the Drug uptake result was “Active”. Moreover, the viability at 1 h, 5 µM in data set [8] came to 78.2%.

For the compound `C[C@H](NC(=O)[C@H](Cc1ccc(OCc2ccccc2)cc1)NC(=O)OC(C)(C)C)C(=O)N[C@@H](C[C@]1(O)C(=O)Nc2ccccc21)C(=O)NCc1ccccc1`, the IC50 was found to be 3200 nM in data set [1]; 11500 nM in [2]; 2530 nM in data set [3]; 6160 nM in [4]; 27700 nM in data set [5]; 7100 nM in data set [6].

As to `C[C@H](NC(=O)[C@H](Cc1ccc(OCc2ccccc2)cc1)NC(=O)c1ccc(-c2c3ccc(=[N+](C)C)cc-3oc3cc(N(C)C)ccc23)c(C(=O)[O-])c1)C(=O)N[C@@H](C[C@]1(O)C(=O)Nc2ccccc21)C(=O)NCc1ccccc1`, the IC50 stood at 289 nM in the data set on Proteasome [9]; 430 nM in data set [1]; 2480 nM in the data set with Proteasome [11]; 1080 nM in data set [2]; 420 nM in [3]; 830 nM in data set [4]. For the same compound, the values for the IC50 (with Proteasome [15]; in [5]; in [6]) were 1120 nM, 3530 nM and 1630 nM, respectively. The Drug uptake result (in data set [13]; in the data set with HEK293 [7]) was “Active” each time. The viability at 1 h, 5 µM in [8] is 90.1%.

For the compound `C[C@H](NC(=O)[C@H](Cc1ccc(OCc2ccccc2)cc1)NC(=O)CCCCCNC(=O)CCCCCNC(=O)CCCCCNC(=O)c1ccc(-c2c3ccc(=[N+](C)C)cc-3oc3cc(N(C)C)ccc23)c(C(=O)[O-])c1)C(=O)N[C@@H](C[C@]1(O)C(=O)Nc2ccccc21)C(=O)NCc1ccccc1`, the 50% inhibitory concentration (IC50) in the data set on Proteasome [9] was determined as 125 nM; in data set [1], 490 nM; with Proteasome [11], 515 nM; in [2], 1370 nM; in data set [3], 670 nM; in data set [4], 740 nM. In addition, the 50% inhibitory concentration (IC50) in the data set on Proteasome [15] is 596 nM; in data set [5], 1730 nM; in [6], 1280 nM. Moreover, in data set [13], the Drug uptake result is “Active”. For the same compound, the viability at 1 h, 5 µM in data set [8] was 100%.
